According to patent US20120135078A1, “ANGINA TREATMENT” (University of Dindee, priority 2009, published 2012):

Tests used:
[1] = Serum analysis (biochemical data) in the cross-over study; type: in vivo, human; settings: mean ± SD; after allopurinol treatment; p<0.001 vs baseline and placebo
Protocol: (§1) Eligible participants were then randomised to either allopurinol up to 300 mg BID or matching placebo for 6 weeks. The dose of allopurinol started at 100 mg OD for the first week, 300 mg OD for the second week and 300 mg BID for the remaining treatment period.
(§2) A p value <0.05 was considered significant.

[2] = test system: patients with chronic stable angina; experiment: Treadmill exercise tolerance test (full Bruce protocol), randomised double-blind placebo-controlled cross-over study; type: in vivo, human
Protocol: The trial was carried out at Ninewells Hospital, UK. It was approved by the Fife, Forth Valley and Tayside Research Ethics Committee and was conducted in accordance with the Declaration of Helsinki. Signed, written informed consent was obtained from each participant.
Individuals aged 18 to 85 years were eligible if they had angiographically documented coronary artery disease, a positive exercise tolerance test (ETT) and a history of symptoms of chronic, stable, effort-induced angina for ≧2 months. Concomitant antianginal medication was allowed.
Exclusion criteria included myocardial infarction ≧2 months, coronary revascularization (percutaneous or CABG) ≧6 months, Left Ventricular Ejection Fraction <45%, estimated GFR <45 ml/min, significant valvular pathology, already on allopurinol, atrial arrhythmias or ECG abnormalities interfering with ST-segment interpretation.
Eligible participants had to manifest ischaemia (ST depression ≧1mm compared to resting ECG) on both visits with a between visit difference in time to ST depression of less than 15%. Otherwise, a third ETT was performed and there had to be a difference of less than 15% between the second and third test.
as §1
The ECG analysis was performed by two independent observers who were both blind to the treatments. The results of each assessment were virtually identical.
as §2

[3] = test system: patients with chronic stable angina; experiment: Haemodynamic responses during exercise testing
[4] = cited from earlier work
angina patients = settings: references 1-7; cited from earlier work
[5] = median, after 6 weeks allopurinol up to 300 mg BID (600 mg/day) added to existing anti-anginal medication
[6] = mean ± SD, Stage 1 of Bruce protocol

Oc1ncnc2[nH]ncc12 [Allopurinol, 1,5-dihydro-4H-pyrazolo[3,4-d]pyrimidin-4-one]
serum uric acid [1]: 0.14 ± 0.05 mmol/L | absolute increase in median time to ST depression ([2]; allopurinol vs baseline): 66 s | increase in median time to ST depression (percent) ([2]; allopurinol vs baseline): 28% | median exercise time higher on allopurinol than on placebo or baseline ([2]; difference of medians): 86 to 92 s | median exercise time higher on allopurinol than on placebo or baseline (percent) ([2]; difference of medians): 30% | increase in time to ST depression by geometric mean ([2]; geometric mean): 22% | Time to ST Depression [2, 5]: 298 s | Total Exercise Time [2, 5]: 393 s | Time to Symptoms ([2]; median, after 6 weeks allopurinol up to 300 mg BID added to existing anti-anginal medication): 304 s | systolic blood pressure change at the end of the first stage of the Bruce protocol ([3]; change from baseline, p=0.026 vs placebo): −6.1 mmHg | HR Stage 1 [3, 6]: 95.6 ± 13.5 bpm | RPP (Rate Pressure Product) Stage 1 [3, 6]: 12756 ± 2798 bpm · mmHg | dBP Stage 1 [3, 6]: 71.7 ± 10.1 mmhg | sBP Stage 1 [3, 6]: 135.5 ± 19.3 mmHg | HR Peak exercise ([3]; mean ± SD, peak exercise): 118.5 ± 15.2 bpm | RPP (Rate Pressure Product) Peak Exercise ([3]; mean ± SD, peak exercise): 18842 ± 3791 bpm · mmHg | dBP Peak Exercise ([3]; mean ± SD, peak exercise): 75.4 ± 11.9 mmhg | sBP Peak exercise ([3]; mean ± SD, peak exercise): 158.7 ± 22.4 mmHg | HR Resting ([3]; mean ± SD, resting): 63.8 ± 8.6 bpm | RPP (Rate Pressure Product) Resting ([3]; mean ± SD, resting): 7910 ± 1577 bpm · mmHg | dBP Resting ([3]; mean ± SD, resting): 72.2 ± 9.9 mmhg | sBP Resting ([3]; mean ± SD, resting): 123.7 ± 16.2 mmHg | solubility in chloroform and in ether ([4]; chloroform, ether): practically insoluble | solubility in dilute solutions of alkali hydroxides ([4]; dilute solutions of alkali hydroxides): dissolves | solubility in water and alcohol ([4]; water and alcohol): only slightly soluble

CC(C)NCC(O)COc1ccc(CC(N)=O)cc1 (stereo not shown) [atenolol]
increase in time to ST depression, comparable published figures (angina patients): around 50 seconds | increase in time to ST depression, comparable published figures (percent) (angina patients): 15%

COc1cc2c(cc1OC)CC(=O)N(CCCN(C)C[C@H]1Cc3cc(OC)c(OC)cc31)CC2 [ivabradine]
increase in time to ST depression, comparable published figures (angina patients): 46 s | increase in time to ST depression, comparable published figures (percent) (angina patients): 13.5%

COc1ccccc1OCC(O)CN1CCN(CC(=O)Nc2c(C)cccc2C)CC1 (stereo not shown) [ranolazine]
increase in time to ST depression, comparable published figures (angina patients): around 50 seconds | increase in time to ST depression, comparable published figures (percent) (angina patients): 15%
